Assay: Human HepG2 cell viability assay in 384 well format
Type: toxicity, cell-based
Design: dose 125 nL, time 70.5 hour; cytotoxicity at 70.5 h: concentration not given beside the values
Details: HepG2 cells, read-out: Inhibition

| Compound | cytotoxicity at 70.5 h [%] |
| --- | --- |
| COCC(=O)N1C[C@@H]2COC[C@]2(COC)C1 | -9.06 |
| CNC(=O)CCc1cc(C2CCNCC2)nc(C)n1 | -5.9 |
| O=C(CCCc1ccccc1)Nc1cnc(N2CCOCC2)nc1 | 2.35 |
| O=C(COCc1nc(-c2ccncc2)no1)N1CCCCCC1 | -5.87 |
| COCC(=O)N1C[C@@H](OCc2ccncc2)[C@@H]2OCCC[C@@H]21 | 52.2 |
| CC(C)(C)c1cc(CN2CCOCC(O)C2)n[nH]1 (stereo unspecified) | 2.49 |
| COc1cccc(CN(C)C(C)c2ccco2)c1OCCn1ccnc1 (stereo unspecified) | -6.31 |
| CN(C)C(=O)CO[C@H]1CN(Cc2nccs2)[C@@H]2COC[C@H]12 | -9.59 |
| O=C1NCCCC12CCN(S(=O)(=O)N1CCOCC1)C2 (stereo unspecified) | -6.49 |
| COc1cc(CNC(=O)Nc2nnc(C3CC3)s2)ccc1O | -8.51 |
| Cc1cc(C)n(CC(C)Nc2nc(-c3ccncc3)nc3c2CNC3)n1 (stereo unspecified) | 17.3 |
| COCCCNC(=O)C1CN(C(=O)c2cnccn2)C1 | -15.7 |
| Cc1occc1C(=O)NCCOc1ccc(C(F)(F)F)cn1 | 18.8 |
| COCCn1cc2c(n1)C(CNCc1nccs1)OCC2 (stereo unspecified) | -2.52 |
| CC(C)c1cc(NCC(O)c2ccccn2)n2nccc2n1 (stereo unspecified) | -8.96 |
| Cc1cccc(NC(=O)[C@@H]2CCCN2CC(=O)N2CCCCCC2)n1 | -4.62 |
| CC(=O)NCCCSC1CCN(c2ccccc2F)C1=O (stereo unspecified) | -11.5 |
| COc1ccc(CN2CCCn3cncc3C2)cc1Cn1cncn1 | -8.65 |
| NC(=O)CN1CC2(CCC1=O)CCN(Cc1cc(F)cc(F)c1)CC2 | -0.945 |
| COc1cc(C)cc(C(C(=O)O)N(C)Cc2cnn(C)c2)c1OC (stereo unspecified) | 4.79 |
| Cc1nccc(-c2cccc(NCc3nc(C(C)C)no3)c2)n1 | -10.6 |
| CC(C)(CNc1cn[nH]c(=O)c1Cl)c1ccc2c(c1)OCO2 | -13.4 |
| O=C(c1ccco1)N1CCO[C@@H]2CN(Cc3nccs3)CC[C@@H]2C1 | -6.2 |
| CCCn1ccnc1SCCNS(=O)(=O)c1ccccc1 | -1.16 |

| Compound | cytotoxicity at 70.5 h [%] |
| --- | --- |
| CC(C)C(C)N(Cc1cnc2ccccc2n1)Cc1ccco1 (stereo unspecified) | -8.62 |
| CC(Oc1ccc2c(c1)OCO2)C(=O)N1CCC(N2CCCC2)CC1 (stereo unspecified) | -4.56 |
| N#Cc1cccc(S(=O)(=O)NC(=O)CCOCC(F)(F)F)c1 | -3.71 |
| CN(C)C(=O)CN1CCN(C(=O)C2CSc3ccccc3O2)CC1 (stereo unspecified) | -16.2 |
| CN1CCN(C(=O)CCC(=O)c2cccs2)Cc2ccccc21 | -0.893 |
| CN(Cc1ccccc1)c1ncccc1CNC1CCCC1 | -1.34 |
| Cc1cnc(NCc2ccncc2)nc1-c1cnn(C)c1 | 12.6 |
| Fc1ccccc1CN1CCC(c2noc(-c3ccccn3)n2)CC1 | 1.88 |
| CC(=O)NCCNC(=O)C1(Oc2cccnc2C)CCNCC1 | -5.79 |
| Cc1n[nH]c(C)c1CCNC(=O)C1CCCN(CC(N)=O)C1 (stereo unspecified) | -1.91 |
| CCOc1ccccc1CCNC(=O)NCC(O)c1cccs1 (stereo unspecified) | -4.36 |
| CS(=O)(=O)N1CC[C@H]2[C@H](C[C@@H](Cn3cncn3)N2CC2CC2)C1 | -1.14 |
| CCN(C)S(=O)(=O)c1c(F)cc(NC(C)=O)cc1F | -2.83 |
| CS(=O)(=O)NCCC1CCCCN1C(=O)NCCc1ccccc1 (stereo unspecified) | 17.9 |
| Cc1nnc(NC(=O)NC2CCCc3c2cnn3CCO)s1 (stereo unspecified) | -6.14 |
| CN1CCN(c2cc(Sc3cccs3)nc(N)n2)CC1CCO (stereo unspecified) | -7.97 |
| Cn1cc(S(=O)(=O)NCC2CCN(C(=O)c3ccoc3)CC2)cn1 | -2.52 |
| CC1COc2ccccc2N1C(=O)CCc1cscn1 (stereo unspecified) | 3.54 |
| Cc1cc2cccc(C(=O)N3CC[C@](C)(O)[C@H](C)C3)c2o1 | 14.5 |
| O=C(c1ccc(=O)[nH]n1)N1CCCC1CCc1ccccc1 (stereo unspecified) | -11.9 |
| CCOC(C)c1nc(Cn2cc(-n3cccc3)cn2)cs1 (stereo unspecified) | -10.1 |
| CCOC1CC2(CCN(C(C)=O)CC2)c2cc(F)ccc21 (stereo unspecified) | -3.98 |
| Cc1ccc(CN2CCOCC2)cc1NCc1ccsc1 | -13.9 |
| CCCN1CCc2nc(SCc3c(C)cc(C)cc3C)[nH]c(=O)c2C1 | 4.68 |

| Compound | cytotoxicity at 70.5 h [%] |
| --- | --- |
| Cc1nc(CCNC(=O)C2CC(=O)N(C(C)C)C2)sc1C (stereo unspecified) | -10.3 |
| CC1(C)O[C@@](C)([C@H]2CC3(CCN(c4ncccn4)CC3)CO2)CC[C@@H]1O | -4.22 |
| COC(=O)c1cccn1C1CCN(C(=O)c2ccc(C)cc2O)CC1 | -8.93 |
| O=C(CCc1nc2cccnc2[nH]1)NCc1ccc2c(c1)OCO2 | -9.32 |
| CN(CCCc1cnn(C)c1)c1nccc(-c2cc(C(=O)O)ccn2)n1 | -5.12 |
| Cc1cccc(NC(=O)CNC(=O)Cn2ncc(Cl)c(Cl)c2=O)c1C | 4.71 |
| CCCC(=O)N1CCCCC1C(=O)Nc1ccc(-c2nnc[nH]2)cc1 (stereo unspecified) | -5.35 |
| Cn1nnc2cc(C(=O)N3CCCC3Cc3ccccc3)ccc21 (stereo unspecified) | -1.35 |
| CCCOc1ccc(CN)c(OC(F)F)c1 | -3.13 |
| Cn1cc(C[C@H]2[C@H](O)CCN2C(=O)C2CCCC2)cn1 | -2.64 |
| FC(F)(F)c1cc(C2CCCN(c3cnccn3)C2)n2ccnc2n1 (stereo unspecified) | -11.9 |
| Cc1cc(C)n(-c2ccc(CNCc3ccc(OC(C)C)cc3)cn2)n1 | -0.102 |
| Cc1nnc(NC(=O)CSCc2cc(=O)n3ccccc3n2)s1 | -4.73 |
| Cc1cc(C)n(C2CCCN(C(=O)c3ccc(F)c(F)c3)C2)n1 (stereo unspecified) | 9.19 |
| CN(CCc1ccccc1)Cc1c(C2CCOCC2)[nH]c2ncccc12 | -2.01 |
| Cc1ccc(CN(Cc2ccccn2)C(=O)C2CCCCCN2C)s1 (stereo unspecified) | 27.3 |
| Cc1cccc(OC2CCN(C(=O)NCCn3ccnc3)CC2)c1C | -3.44 |
| Cc1ccc(CN2Cc3nccn3CC(Cn3cncn3)C2)s1 (stereo unspecified) | -1.32 |
| COc1ccccc1C(O)CNC(=O)Nc1ncccc1C (stereo unspecified) | 7.49 |
| CSc1ccc(CNC2(c3ccc(F)cc3)CCOCC2)cc1 | -3.89 |
| CCNC(=O)C1(CC2CC(c3ccccc3OC)=NO2)CCOCC1 (stereo unspecified) | -0.996 |
| NCC1Cc2cc(-c3cncc(C(=O)N4CCOCC4)n3)cc(Cl)c2O1 (stereo unspecified) | -4.26 |
| Cc1cccc(N2CC[C@@H]3[C@@H](CO[C@H]3CNC(=O)c3ccco3)C2)n1 | -0.126 |
| O=C1N(c2cccc(F)c2)Cc2nc(=O)n(Cc3ccccc3Cl)n21 | -18.7 |

| Compound | cytotoxicity at 70.5 h [%] |
| --- | --- |
| COc1cccc2c1OCC(CNC(=O)CCn1cnnn1)C2 (stereo unspecified) | -1.24 |
| CCCN1CCCC2(CCN(Cc3cncn3C3CCCC3)C2)C1=O (stereo unspecified) | -8.03 |
| CSCCC(=O)N1CCN(CC(C)O)CC1 (stereo unspecified) | -2.96 |
| CC(C)c1n[nH]c(C2CN(C(=O)c3cc(C(N)=O)cs3)CCO2)n1 (stereo unspecified) | 0.559 |
| CCn1c(CC2CCNCC2)nn(Cc2ccc(C(=O)NC)o2)c1=O | -11.7 |
| CN(C)CCNC(=O)c1cc(-c2cnc(N(C)C)nc2)cn1CC1CC1 | -6.44 |
| CCn1nc(CC(C)C)cc1C(=O)NCC(F)(F)F | 12.8 |
| CC(SCCS(C)(=O)=O)c1nc(Cc2ccccc2)no1 (stereo unspecified) | -7.83 |
| CN(C)CC(=O)N1CCc2sc(C(=O)NCC3CC3)cc21 | -12.2 |
| Cc1ccc(N2CCC(C(O)Cc3ccccc3)CC2)nn1 (stereo unspecified) | 1.34 |
| CCC1CN(CC(=O)N2CCN(C(C)=O)CC2)CCN1CCOC (stereo unspecified) | -7.53 |
| COc1ccc(CCC(=O)NCCC2CCCO2)cc1Br (stereo unspecified) | -7.13 |
| Cc1ccc2nc(C)cc(C(=O)NCc3csc(N(C)C)n3)c2c1 | -2.75 |
| Cc1nn(C)c(C)c1OCC(=O)NCC(O)c1ccco1 (stereo unspecified) | 16 |
| COCCNC(=O)C1CN(C(N)=O)Cc2ccnn2C1 (stereo unspecified) | -8.89 |
| O=C(CCc1cc2n(n1)CCCNC2)NCCS(=O)(=O)N1CCCC1 | 21.6 |
| COc1cccc(-n2c(C)cc(C(=O)O)c2C)c1 | -5.75 |
| CCC(CN1CCOCC1)n1cncc1-c1ccc2c(c1)CCN2CC (stereo unspecified) | 21 |
| CCCN(Cc1ccccn1)Cc1ccccc1OC | -6.2 |
| COc1ccc(CN(C)Cn2cc(C)n(-c3cc(C)on3)c2=O)cc1 | -12.5 |
| CN1CCN(S(=O)(=O)c2cccc(C#N)c2)c2ccc(F)cc21 | 0.333 |
| CC(C)N1CCc2onc(Cn3cccc3)c2C1 | -2.22 |
| CCn1cnnc1CNC(=O)N1CCN(c2ccccc2Cl)CC1 | -3.38 |
| OCCOc1ccccc1CN1CCCC(O)(CO)C1 (stereo unspecified) | 9.78 |

| Compound | cytotoxicity at 70.5 h [%] |
| --- | --- |
| N#Cc1cccc(N2CC3(CCN(C(=O)NC4CC4)C3)CC2=O)c1 (stereo unspecified) | -4.14 |
| COc1cccc2c1OCC(CNC(=O)COCC(F)(F)C(F)F)C2 (stereo unspecified) | 8.83 |
| O=C(c1ccsc1)N1CCC(Nc2cccnn2)CC1 | -3.37 |
| COc1ccccc1-c1cc(NC(=O)COCC2CC2)[nH]n1 | -4.9 |
| Cc1ccccc1C1(C(=O)NCCN2CCCC2)CCOCC1 | -13.9 |
| CC1CN(S(=O)(=O)c2ccc(F)cc2F)c2cccnc2O1 (stereo unspecified) | -6.28 |
| O=C(COc1ccc2c(c1)CCC2)NS(=O)(=O)c1cncc(Br)c1 | -2.54 |
| NS(=O)(=O)CCN1CCOC(c2ccc(Cl)cc2)C1 (stereo unspecified) | 2.97 |
| CC(C(=O)NCCN1CCCCC1)n1cncn1 (stereo unspecified) | -12.5 |
| Cc1cnn(CC2CN(Cc3nc(C)c4ccccc4n3)CCO2)c1 (stereo unspecified) | -7.25 |
| CS(=O)(=O)N1CCc2ncc(CNC(=O)C3CCC3)n2CC1 | -1.87 |
| CN1CCCCC1Cc1nc2c(cc1C(N)=O)CCC2 (stereo unspecified) | 13.7 |
| CCn1nc(CC(C)C)cc1C(=O)N1CCCOC(CN2CCCC2)C1 (stereo unspecified) | -3.36 |
| CCOc1cccc(C(C)NC(=O)N2CCC(C(N)=O)CC2)c1 (stereo unspecified) | -8.18 |
| CN1CCOCC12CCN(C(=O)C1CCC1)CC2 | 1.58 |
| Cc1ccc(-c2nc(CC(=O)NCC3CCOC3)cs2)o1 (stereo unspecified) | -2.56 |
| Cc1ccc2nc(N3CCN(CC(=O)NC(C)C)CC3)cc(C)c2c1 | -1.6 |
| CCOC(=O)N1CCC2(CCCN(C3CCOCC3)C2=O)C1 (stereo unspecified) | -8.17 |
| CCc1nc(C2CCCN2Cc2cc(=O)n(C)c(=O)n2C)no1 (stereo unspecified) | -16.4 |
| COc1cc2nc(NCCN3CCNC3=O)cc(C)c2cc1OC | -0.54 |
